Assay results published in patent US20230157952A1, “METHOD FOR IMPROVING THE STABILITY OF A PHARMACEUTICAL COMPOSITION COMPRISING A HIGH PENETRATION DRUG, AND THE PHARMACEUTICAL COMPOSITION OBTAINED THEREFROM” (Techfields Inc., priority 2020, published 2023).

Tests used:
[1] = Effect of temperature (and pH) on the stability of the solution (purity); type: physicochemical; conditions: 7% solution in water
[2] = Effect of concentration on the stability of the solution (purity over time); conditions: in water at 25° C.

CCN(CC)CCOC(=O)Cc1sc(-c2ccccc2)nc1-c1ccc(Cl)cc1.Cl [2-(diethylamino)ethyl 4-(4-chlorophenyl)-2-phenyl-5-thiazoleacetate•HCl]
Stability of the solution at a temperature higher than 40° C. and a pH lower than 3 or greater than 6 [1]: not stable
Purity at Day 3 ([2]; 0.01 wt %): 83.4%
Purity at Day 7 ([2]; 0.01 wt %): 74.2%
Purity at Day 14 ([2]; 0.01 wt %): 58.4%
Purity at Day 21 ([2]; 0.01 wt %): 46.5%
Purity at Day 28 ([2]; 0.01 wt %): 37.5%
Purity at hr 0 ([2]; 0.01 wt %): 98.4%
Purity at Day 3 ([2]; 0.1 wt %): 96.7%
Purity at Day 7 ([2]; 0.1 wt %): 95.6%
Purity at Day 14 ([2]; 0.1 wt %): 91.5%
Purity at Day 21 ([2]; 0.1 wt %): 84.7%
Purity at Day 28 ([2]; 0.1 wt %): 80.5%
Purity at hr 0 ([2]; 0.1 wt %): 98.5%
Purity at Day 3 ([2]; 1 wt %): 96.6%
Purity at Day 7 ([2]; 1 wt %): 95.5%
Purity at Day 14 ([2]; 1 wt %): 92.9%
Purity at Day 21 ([2]; 1 wt %): 90.9%
Purity at Day 28 ([2]; 1 wt %): 89.1%
Purity at hr 0 ([2]; 1 wt %): 98.7%
Purity at Day 3 ([2]; 3 wt %): 96.5%
Purity at Day 7 ([2]; 3 wt %): 96.2%
Purity at Day 14 ([2]; 3 wt %): 94.8%
Purity at Day 21 ([2]; 3 wt %): 94.0%
Purity at Day 28 ([2]; 3 wt %): 92.7%
Purity at hr 0 ([2]; 3 wt %): 98.9%
Purity at Day 3 ([2]; 5 wt %): 98.4%
Purity at Day 7 ([2]; 5 wt %): 98.0%
Purity at Day 14 ([2]; 5 wt %): 97.8%
Purity at Day 21 ([2]; 5 wt %): 96.6%
Purity at Day 28 ([2]; 5 wt %): 95.4%
Purity at hr 0 ([2]; 5 wt %): 98.9%
Purity at Day 3 ([2]; 7 wt %): 98.6%
Purity at Day 7 ([2]; 7 wt %): 98.2%
Purity at Day 14 ([2]; 7 wt %): 98.2%
Purity at Day 21 ([2]; 7 wt %): 97.7%
Purity at Day 28 ([2]; 7 wt %): 97.5%
Purity at hr 0 ([2]; 7 wt %): 99.1%
Purity at Day 3 ([2]; 8 wt %): 98.7%
Purity at Day 7 ([2]; 8 wt %): 98.3%
Purity at Day 14 ([2]; 8 wt %): 97.9%
Purity at Day 21 ([2]; 8 wt %): 97.9%
Purity at Day 28 ([2]; 8 wt %): 97.6%
Purity at hr 0 ([2]; 8 wt %): 99.1%
Purity at Day 3 ([2]; 10 wt %): 98.8%
Purity at Day 7 ([2]; 10 wt %): 98.5%
Purity at Day 14 ([2]; 10 wt %): 98.3%
Purity at Day 21 ([2]; 10 wt %): 98.1%
Purity at Day 28 ([2]; 10 wt %): 97.5%
Purity at hr 0 ([2]; 10 wt %): 99.2%
Purity at Day 3 ([2]; 15 wt %): 98.7%
Purity at Day 7 ([2]; 15 wt %): 98.6%
Purity at Day 14 ([2]; 15 wt %): 98.4%
Purity at Day 21 ([2]; 15 wt %): 98.1%
Purity at Day 28 ([2]; 15 wt %): 97.8%
Purity at hr 0 ([2]; 15 wt %): 99.1%
Purity at Day 3 ([2]; 20 wt %): 98.8%
Purity at Day 7 ([2]; 20 wt %): 98.5%
Purity at Day 14 ([2]; 20 wt %): 98.2%
Purity at Day 21 ([2]; 20 wt %): 98.1%
Purity at Day 28 ([2]; 20 wt %): 97.7%
Purity at hr 0 ([2]; 20 wt %): 99.0%
Purity at Day 3 ([2]; 30 wt %): 98.7%
Purity at Day 7 ([2]; 30 wt %): 98.5%
Purity at Day 14 ([2]; 30 wt %): 98.3%
Purity at Day 21 ([2]; 30 wt %): 98.0%
Purity at Day 28 ([2]; 30 wt %): 97.8%
Purity at hr 0 ([2]; 30 wt %): 99.1%
Purity at Day 3 ([2]; 50 wt %): 98.8%
Purity at Day 7 ([2]; 50 wt %): 98.5%
Purity at Day 14 ([2]; 50 wt %): 98.2%
Purity at Day 21 ([2]; 50 wt %): 98.9%
Purity at Day 28 ([2]; 50 wt %): 97.8%
Purity at hr 0 ([2]; 50 wt %): 99.1%
Stability when the concentration is 0.1% or lower [2]: not stable

CCN(CC)CCOC(=O)CCc1nc(-c2ccccc2)c(-c2ccccc2)o1.Cl [2-(diethylamino)ethyl 4,5-diphenyl-2-oxazolepropionate•HCl]
Stability of the solution at a temperature higher than 40° C. and a pH lower than 3 or greater than 6 [1]: not stable
Purity at Day 3 ([2]; 0.01 wt %): 83.8%
Purity at Day 7 ([2]; 0.01 wt %): 73.9%
Purity at Day 14 ([2]; 0.01 wt %): 58.9%
Purity at Day 21 ([2]; 0.01 wt %): 47.6%
Purity at Day 28 ([2]; 0.01 wt %): 38.9%
Purity at hr 0 ([2]; 0.01 wt %): 97.8%
Purity at Day 3 ([2]; 0.1 wt %): 94.7%
Purity at Day 7 ([2]; 0.1 wt %): 90.6%
Purity at Day 14 ([2]; 0.1 wt %): 83.5%
Purity at Day 21 ([2]; 0.1 wt %): 75.7%
Purity at Day 28 ([2]; 0.1 wt %): 65.5%
Purity at hr 0 ([2]; 0.1 wt %): 97.9%
Purity at Day 3 ([2]; 1 wt %): 95.3%
Purity at Day 7 ([2]; 1 wt %): 92.9%
Purity at Day 14 ([2]; 1 wt %): 88.9%
Purity at Day 21 ([2]; 1 wt %): 84.6%
Purity at Day 28 ([2]; 1 wt %): 79.2%
Purity at hr 0 ([2]; 1 wt %): 98.0%
Purity at Day 3 ([2]; 3 wt %): 96.3%
Purity at Day 7 ([2]; 3 wt %): 95.1%
Purity at Day 14 ([2]; 3 wt %): 92.5%
Purity at Day 21 ([2]; 3 wt %): 89.0%
Purity at Day 28 ([2]; 3 wt %): 85.7%
Purity at hr 0 ([2]; 3 wt %): 98.4%
Purity at Day 3 ([2]; 5 wt %): 98.2%
Purity at Day 7 ([2]; 5 wt %): 97.8%
Purity at Day 14 ([2]; 5 wt %): 97.0%
Purity at Day 21 ([2]; 5 wt %): 96.3%
Purity at Day 28 ([2]; 5 wt %): 95.0%
Purity at hr 0 ([2]; 5 wt %): 98.5%
Purity at Day 3 ([2]; 7 wt %): 98.6%
Purity at Day 7 ([2]; 7 wt %): 98.2%
Purity at Day 14 ([2]; 7 wt %): 98.0%
Purity at Day 21 ([2]; 7 wt %): 97.7%
Purity at Day 28 ([2]; 7 wt %): 97.4%
Purity at hr 0 ([2]; 7 wt %): 98.8%
Purity at Day 3 ([2]; 8 wt %): 98.7%
Purity at Day 7 ([2]; 8 wt %): 98.3%
Purity at Day 14 ([2]; 8 wt %): 97.9%
Purity at Day 21 ([2]; 8 wt %): 97.7%
Purity at Day 28 ([2]; 8 wt %): 97.5%
Purity at hr 0 ([2]; 8 wt %): 98.7%
Purity at Day 3 ([2]; 10 wt %): 98.6%
Purity at Day 7 ([2]; 10 wt %): 98.5%
Purity at Day 14 ([2]; 10 wt %): 98.2%
Purity at Day 21 ([2]; 10 wt %): 97.8%
Purity at Day 28 ([2]; 10 wt %): 97.4%
Purity at hr 0 ([2]; 10 wt %): 98.8%
Purity at Day 3 ([2]; 15 wt %): 98.7%
Purity at Day 7 ([2]; 15 wt %): 98.4%
Purity at Day 14 ([2]; 15 wt %): 98.1%
Purity at Day 21 ([2]; 15 wt %): 97.9%
Purity at Day 28 ([2]; 15 wt %): 97.5%
Purity at hr 0 ([2]; 15 wt %): 98.8%
Purity at Day 3 ([2]; 20 wt %): 98.7%
Purity at Day 7 ([2]; 20 wt %): 98.5%
Purity at Day 14 ([2]; 20 wt %): 98.2%
Purity at Day 21 ([2]; 20 wt %): 97.8%
Purity at Day 28 ([2]; 20 wt %): 97.5%
Purity at hr 0 ([2]; 20 wt %): 98.7%
Purity at Day 3 ([2]; 30 wt %): 98.7%
Purity at Day 7 ([2]; 30 wt %): 98.5%
Purity at Day 14 ([2]; 30 wt %): 98.3%
Purity at Day 21 ([2]; 30 wt %): 97.9%
Purity at Day 28 ([2]; 30 wt %): 97.6%
Purity at hr 0 ([2]; 30 wt %): 98.8%
Purity at Day 3 ([2]; 50 wt %): 98.7%
Purity at Day 7 ([2]; 50 wt %): 98.5%
Purity at Day 14 ([2]; 50 wt %): 98.2%
Purity at Day 21 ([2]; 50 wt %): 97.8%
Purity at Day 28 ([2]; 50 wt %): 97.5%
Purity at hr 0 ([2]; 50 wt %): 98.8%
Stability when the concentration is 0.1% or lower [2]: not stable
